Data as given in patent US11236110B2 (priority 2017, dated 2022).

Columns and labels:
[1] = Preliminary miscibility assays on the free base in selected solvents; type: physicochemical; conditions: for Miscibility: number of volumes needed to dissolve the oil at room temperature
Description: Preliminary Miscibility Assays on (R)-9-(2,5-difluorophenethyl)-4-ethyl-2-methyl-1-oxa-4,9-diazaspiro[5.5]undecan-3-One Free Base

[2] = acidic counter-ion; cited from earlier work

In the case of `CCN1CC2(CCN(CCc3cc(F)ccc3F)CC2)O[C@H](C)C1=O` [(R)-9-(2,5-difluorophenethyl)-4-ethyl-2-methyl-1-oxa-4,9-diazaspiro[5.5]undecan-3-one], the “miscibility of the oil with the solvents tested” value ([1]; room temperature, all the solvents tested (Table 2)) is reported as “freely miscible”, the Miscibility ([1]; solvent H2O) is reported as 10 V and the Miscibility ([1]; solvent IPA (isopropanol)) is reported as 10 V. It also gave a Miscibility ([1]; solvent MIK (methyl isobutyl ketone)) of 10 V, a Miscibility ([1]; solvent THF (tetrahydrofuran)) of 10 V and a Miscibility ([1]; solvent Toluene) of 10 V.

For `O=C(O)[C@@H](O)c1ccccc1` [(S)-(+)-Mandelic acid], the pKa1 [2] is given as 3.4.

In the case of `Br` [Hydrobromic acid], the pKa1 [2] is listed as −6.

For `O=[N+]([O-])O` [Nitric acid], the pKa1 [2] is listed as −1.4.
